From patent US20250243171A1, “QUINAZOLINE COMPOUNDS FOR TREATMENT OF DISEASE” (Arthrosi Therapeutics, Inc., priority 2021, published 2025)

What was measured:
Assay in all cases: EC50 assay: Ba/F3 stable cell proliferation (CCK-8, 72 h)
Format in all cases: cell-based
Ba/F3 stable cells [1] = molecular target: T1, Ba/F3 stable cells (Homo sapiens, UniProt P00533, DUP767-769, cells depend on it); details: Ba/F3-EGFR V769-D770insASV cells
T1 construct: EC50 Ba/F3-EGFR V769-D770insASV; other: Ba/F3-EGFR V769-D770insASV cells, 72 h, CCK-8
T1 sequence (P00533 with tags, fused parts or gaps DUP767-769): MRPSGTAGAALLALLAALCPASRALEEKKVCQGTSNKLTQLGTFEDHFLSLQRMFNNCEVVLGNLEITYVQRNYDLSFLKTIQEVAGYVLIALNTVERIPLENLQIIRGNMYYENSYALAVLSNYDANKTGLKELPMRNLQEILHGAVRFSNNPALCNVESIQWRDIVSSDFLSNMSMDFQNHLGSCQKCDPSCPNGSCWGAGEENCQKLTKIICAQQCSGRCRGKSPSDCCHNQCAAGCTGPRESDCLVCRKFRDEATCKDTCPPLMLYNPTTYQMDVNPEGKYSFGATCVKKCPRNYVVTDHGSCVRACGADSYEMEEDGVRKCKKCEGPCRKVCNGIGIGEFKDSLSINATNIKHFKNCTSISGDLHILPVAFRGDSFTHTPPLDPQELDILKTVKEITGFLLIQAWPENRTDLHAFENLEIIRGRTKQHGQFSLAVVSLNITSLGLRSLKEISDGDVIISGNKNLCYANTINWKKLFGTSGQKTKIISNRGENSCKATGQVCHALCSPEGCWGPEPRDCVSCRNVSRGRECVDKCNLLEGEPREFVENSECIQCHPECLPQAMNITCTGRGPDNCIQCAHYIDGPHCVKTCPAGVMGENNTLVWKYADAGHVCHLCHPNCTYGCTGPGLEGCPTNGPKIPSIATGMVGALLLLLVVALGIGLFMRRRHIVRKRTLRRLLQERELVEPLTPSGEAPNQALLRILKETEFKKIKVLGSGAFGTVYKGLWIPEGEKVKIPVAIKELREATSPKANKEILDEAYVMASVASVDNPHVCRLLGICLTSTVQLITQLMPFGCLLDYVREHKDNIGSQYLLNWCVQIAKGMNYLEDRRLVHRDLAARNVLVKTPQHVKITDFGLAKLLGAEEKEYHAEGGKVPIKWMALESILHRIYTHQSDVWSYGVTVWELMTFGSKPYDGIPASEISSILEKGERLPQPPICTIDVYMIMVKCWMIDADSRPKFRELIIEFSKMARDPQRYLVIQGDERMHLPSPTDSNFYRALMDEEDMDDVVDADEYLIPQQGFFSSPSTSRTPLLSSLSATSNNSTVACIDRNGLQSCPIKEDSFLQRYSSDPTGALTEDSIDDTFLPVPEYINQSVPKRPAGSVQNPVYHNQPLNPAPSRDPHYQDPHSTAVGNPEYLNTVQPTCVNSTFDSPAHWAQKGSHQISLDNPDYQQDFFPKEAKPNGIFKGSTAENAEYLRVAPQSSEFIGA
Description: (§1) 4,000 Ba/F3 stable cells/90 μL/well were plated onto 96-well cell culture plate (Grenier, Cat.No. 655180) and incubated at 37° C. with a humidified atmosphere of 5% CO2 for 2 h. Then the cells were treated with 10 μL compounds at serial titration. The final DMSO concentration is 0.1%. The cells treated with 0.1% DMSO (Vetec, Cat.No.V900090) as a positive control (Max), and medium with 0.1% DMSO was as a negative control (Min). Incubated the cells at 37° C. for 72 h. 10 μL the cell proliferation reagent CCK-8 (Dojindo, Cat.No. CK04 1000T) was added into each well and incubated the plate at 37° C. for 4 hours, the GD value was measured by SPECTRAmax plus (Molecular Devices) at 450 nm. Data processing with Graphpad 7.0.

Ba/F3 stable cells [2] = molecular target: T2, Ba/F3 stable cells (Homo sapiens, UniProt P00533, DUP768-770, cells depend on it); details: Ba/F3-EGFR D770-N771insSVD cells
T2 construct: EC50 Ba/F3-EGFR D770-N771insSVD; other: Ba/F3-EGFR D770-N771insSVD cells, 72 h, CCK-8
Description: as §1

Ba/F3 stable cells [3] = molecular target: T3, Ba/F3 stable cells (Homo sapiens, UniProt P00533, DUP771-773, cells depend on it); details: Ba/F3-EGFR H773-V774insNPH cells
T3 construct: EC50 Ba/F3-EGFR H773-V774insNPH; other: Ba/F3-EGFR H773-V774insNPH cells, 72 h, CCK-8
T3 sequence (P00533 with tags, fused parts or gaps DUP771-773): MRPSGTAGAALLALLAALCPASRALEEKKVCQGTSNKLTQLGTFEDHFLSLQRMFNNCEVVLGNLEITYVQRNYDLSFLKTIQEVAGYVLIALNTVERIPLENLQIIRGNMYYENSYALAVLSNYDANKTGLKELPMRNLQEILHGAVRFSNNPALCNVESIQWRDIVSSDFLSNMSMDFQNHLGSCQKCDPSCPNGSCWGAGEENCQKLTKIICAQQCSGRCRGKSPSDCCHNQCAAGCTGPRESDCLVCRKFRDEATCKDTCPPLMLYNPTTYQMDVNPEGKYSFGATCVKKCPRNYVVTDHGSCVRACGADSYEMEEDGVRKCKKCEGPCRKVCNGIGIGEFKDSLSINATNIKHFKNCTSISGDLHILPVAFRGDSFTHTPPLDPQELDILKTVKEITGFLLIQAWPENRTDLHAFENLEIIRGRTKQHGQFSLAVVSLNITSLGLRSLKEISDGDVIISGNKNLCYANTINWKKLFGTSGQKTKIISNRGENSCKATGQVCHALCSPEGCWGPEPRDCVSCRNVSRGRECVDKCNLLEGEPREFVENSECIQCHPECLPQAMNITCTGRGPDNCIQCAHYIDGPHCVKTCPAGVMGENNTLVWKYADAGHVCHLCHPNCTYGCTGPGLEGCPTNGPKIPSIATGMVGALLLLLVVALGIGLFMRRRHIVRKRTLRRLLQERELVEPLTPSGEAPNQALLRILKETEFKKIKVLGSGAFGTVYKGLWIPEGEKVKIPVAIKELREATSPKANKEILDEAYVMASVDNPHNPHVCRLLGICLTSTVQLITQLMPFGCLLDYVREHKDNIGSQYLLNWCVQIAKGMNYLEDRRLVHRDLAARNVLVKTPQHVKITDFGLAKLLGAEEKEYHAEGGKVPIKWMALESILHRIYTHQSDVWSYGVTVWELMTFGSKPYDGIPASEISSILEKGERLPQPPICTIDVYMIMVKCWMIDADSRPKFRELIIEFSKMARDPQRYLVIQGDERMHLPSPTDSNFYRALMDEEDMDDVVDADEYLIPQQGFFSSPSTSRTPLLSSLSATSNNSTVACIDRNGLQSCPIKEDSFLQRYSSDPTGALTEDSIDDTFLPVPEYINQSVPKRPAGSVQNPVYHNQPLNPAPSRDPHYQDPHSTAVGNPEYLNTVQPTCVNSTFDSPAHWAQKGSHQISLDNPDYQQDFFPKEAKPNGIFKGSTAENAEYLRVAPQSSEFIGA
Description: as §1

Ba/F3 stable cells [4] = molecular target: T4, Ba/F3 stable cells (Homo sapiens, UniProt P00533, INS763FQEA, cells depend on it); details: Ba/F3-EGFR A763-Y764insFQEA cells
T4 construct: EC50 Ba/F3-EGFR A763-Y764insFQEA; other: Ba/F3-EGFR A763-Y764insFQEA cells, 72 h, CCK-8
T4 sequence (P00533 with tags, fused parts or gaps INS763FQEA): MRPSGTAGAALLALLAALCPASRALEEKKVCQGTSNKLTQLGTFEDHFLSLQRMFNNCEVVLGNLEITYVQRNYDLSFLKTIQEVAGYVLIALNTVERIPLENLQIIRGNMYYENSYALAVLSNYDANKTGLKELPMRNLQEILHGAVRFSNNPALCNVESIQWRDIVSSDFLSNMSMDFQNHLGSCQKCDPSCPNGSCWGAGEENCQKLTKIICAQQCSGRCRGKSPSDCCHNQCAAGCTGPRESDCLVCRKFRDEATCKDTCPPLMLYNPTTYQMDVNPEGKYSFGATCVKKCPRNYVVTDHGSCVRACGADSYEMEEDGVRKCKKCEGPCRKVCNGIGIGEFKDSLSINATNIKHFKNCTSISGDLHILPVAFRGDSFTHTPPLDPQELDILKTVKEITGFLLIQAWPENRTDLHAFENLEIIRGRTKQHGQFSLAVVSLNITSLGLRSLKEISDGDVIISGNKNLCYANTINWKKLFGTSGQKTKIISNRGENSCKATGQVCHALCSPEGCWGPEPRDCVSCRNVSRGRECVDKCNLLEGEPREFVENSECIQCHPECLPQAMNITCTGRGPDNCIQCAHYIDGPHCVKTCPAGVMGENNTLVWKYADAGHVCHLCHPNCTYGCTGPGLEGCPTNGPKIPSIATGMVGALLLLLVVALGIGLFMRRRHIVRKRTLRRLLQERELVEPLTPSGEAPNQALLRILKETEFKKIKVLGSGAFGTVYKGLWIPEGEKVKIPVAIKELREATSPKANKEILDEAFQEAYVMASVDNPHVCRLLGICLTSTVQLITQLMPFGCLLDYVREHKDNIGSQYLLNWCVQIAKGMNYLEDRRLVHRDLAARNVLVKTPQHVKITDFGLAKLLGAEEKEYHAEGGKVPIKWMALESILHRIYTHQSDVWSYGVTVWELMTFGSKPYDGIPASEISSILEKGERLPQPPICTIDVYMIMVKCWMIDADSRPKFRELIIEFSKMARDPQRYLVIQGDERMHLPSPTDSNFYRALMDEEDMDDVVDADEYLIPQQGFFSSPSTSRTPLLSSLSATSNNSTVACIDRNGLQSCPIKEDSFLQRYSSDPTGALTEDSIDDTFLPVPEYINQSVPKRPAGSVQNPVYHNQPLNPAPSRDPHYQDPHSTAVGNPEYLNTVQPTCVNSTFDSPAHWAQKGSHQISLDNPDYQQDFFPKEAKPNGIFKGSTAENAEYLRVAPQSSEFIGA
Description: as §1

Ba/F3 stable cells [5] = molecular target: T5, Ba/F3 stable cells (Homo sapiens, UniProt P00533, T790M/L858R, cells depend on it); details: Ba/F3-EGFR L858R-T790M cells
T5 construct: EC50 Ba/F3-EGFR L858R-T790M; other: Ba/F3-EGFR L858R-T790M cells, 72 h, CCK-8
Description: as §1

Ba/F3 stable cells [6] = molecular target: T6, Ba/F3 stable cells (Homo sapiens, UniProt P04626, DUP772-775, cells depend on it); details: Ba/F3-HER2 A775-G776insYVMA cells
T6 construct: EC50 Ba/F3-HER2 A775-G776insYVMA; other: Ba/F3-HER2 A775-G776insYVMA cells, 72 h, CCK-8
T6 sequence (P04626 with tags, fused parts or gaps DUP772-775): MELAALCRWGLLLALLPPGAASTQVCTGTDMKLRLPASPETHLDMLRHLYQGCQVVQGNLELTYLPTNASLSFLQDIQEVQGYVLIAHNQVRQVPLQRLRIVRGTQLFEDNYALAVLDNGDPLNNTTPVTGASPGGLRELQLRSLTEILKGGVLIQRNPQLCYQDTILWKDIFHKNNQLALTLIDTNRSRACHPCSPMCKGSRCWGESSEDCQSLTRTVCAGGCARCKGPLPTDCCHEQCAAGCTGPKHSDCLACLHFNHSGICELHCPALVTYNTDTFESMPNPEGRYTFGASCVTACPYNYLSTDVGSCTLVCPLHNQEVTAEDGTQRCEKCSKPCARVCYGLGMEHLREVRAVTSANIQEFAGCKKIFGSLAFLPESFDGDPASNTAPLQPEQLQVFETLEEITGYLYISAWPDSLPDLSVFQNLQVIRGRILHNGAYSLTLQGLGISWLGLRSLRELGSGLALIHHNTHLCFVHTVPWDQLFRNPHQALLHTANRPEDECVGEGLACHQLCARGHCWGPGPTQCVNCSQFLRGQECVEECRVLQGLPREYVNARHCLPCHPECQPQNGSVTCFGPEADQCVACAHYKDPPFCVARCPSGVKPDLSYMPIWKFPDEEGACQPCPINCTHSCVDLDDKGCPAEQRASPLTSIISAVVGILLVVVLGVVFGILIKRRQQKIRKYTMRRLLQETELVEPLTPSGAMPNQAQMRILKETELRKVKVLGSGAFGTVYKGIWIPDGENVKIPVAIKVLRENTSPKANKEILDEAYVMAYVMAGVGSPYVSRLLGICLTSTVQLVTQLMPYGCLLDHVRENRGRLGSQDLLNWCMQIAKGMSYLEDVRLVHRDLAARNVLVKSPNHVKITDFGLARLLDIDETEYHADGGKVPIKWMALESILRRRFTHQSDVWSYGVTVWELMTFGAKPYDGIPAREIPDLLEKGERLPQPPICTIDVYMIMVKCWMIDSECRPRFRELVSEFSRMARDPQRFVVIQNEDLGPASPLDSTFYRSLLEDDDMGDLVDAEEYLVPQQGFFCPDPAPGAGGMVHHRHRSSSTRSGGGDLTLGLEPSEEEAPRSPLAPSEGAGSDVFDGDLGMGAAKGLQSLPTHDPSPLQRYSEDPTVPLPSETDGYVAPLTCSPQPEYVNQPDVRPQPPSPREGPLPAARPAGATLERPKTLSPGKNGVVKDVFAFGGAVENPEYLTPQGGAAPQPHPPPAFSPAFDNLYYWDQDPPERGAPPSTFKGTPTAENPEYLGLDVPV
Description: as §1

EC50 (Ba/F3 stable cells [1]) [nM]	EC50 (Ba/F3 stable cells [2]) [nM]	EC50 (Ba/F3 stable cells [3]) [nM]	EC50 (Ba/F3 stable cells [4]) [nM]	EC50 (Ba/F3 stable cells [5]) [nM]	EC50 (Ba/F3 stable cells [6]) [nM]	Compound
≤ 200	≤ 200	≤ 200	≤ 200	≤ 200	≤ 200	C=CC(=O)N1CC(c2cc3c(Nc4ccc(Cl)c(Cl)c4F)ncnc3cc2OCCN2CCN(C)CC2)C1 [Compound 21, 1-(3-(4-((3,4-dichloro-2-fluorophenyl)amino)-7-(2-(4-methylpiperazin-1-yl)ethoxy)quinazolin-6-yl)azetidin-1-yl)prop-2-en-1-one]
> 1000	> 1000	> 1000	200 to 1000	> 1000	> 1000	C=CC(=O)N1CC(c2cc3c(Nc4ccc(Cl)c(Cl)c4F)ncnc3cc2O[C@H]2CCOC2)C1 [Compound 22, (S)-1-(3-(4-((3,4-dichloro-2-fluorophenyl)amino)-7-((tetrahydrofuran-3-yl)oxy)quinazolin-6-yl)azetidin-1-yl)prop-2-en-1-one]
≤ 200	≤ 200	≤ 200	≤ 200	≤ 200	200 to 1000	C=CC(=O)N1CC(c2cc3c(Nc4ccc(Cl)c(Cl)c4F)ncnc3cc2OC(F)F)C1 [Compound 23, 1-(3-(4-((3,4-dichloro-2-fluorophenyl)amino)-7-(difluoromethoxy)quinazolin-6-yl)azetidin-1-yl)prop-2-en-1-one]
≤ 200	≤ 200	≤ 200	≤ 200	≤ 200	≤ 200	C=CC(=O)N1CC(c2cc3c(Nc4ccc(Cl)c(Cl)c4F)ncnc3cc2OC2COC2)C1 [Compound 25, 1-(3-(4-((3,4-dichloro-2-fluorophenyl)amino)-7-(oxetan-3-yloxy)quinazolin-6-yl)azetidin-1-yl)prop-2-en-1-one]
≤ 200	200 to 1000	200 to 1000	≤ 200	200 to 1000	200 to 1000	C=CC(=O)N1CC(c2cc3c(Nc4ccc(Cl)c(Cl)c4F)ncnc3cc2OCCN(C)C)C1 [Compound 26, 1-(3-(4-((3,4-dichloro-2-fluorophenyl)amino)-7-(2-(dimethylamino)ethoxy)quinazolin-6-yl)azetidin-1-yl)prop-2-en-1-one]
≤ 200	200 to 1000	≤ 200	≤ 200	200 to 1000	> 1000	C=CC(=O)N1CC(c2cc3c(Nc4ccc(Cl)c(Cl)c4F)ncnc3cc2OC2CCOCC2)C1 [Compound 27, 1-(3-(4-((3,4-dichloro-2-fluorophenyl)amino)-7-((tetrahydro-2H-pyran-4-yl)oxy)quinazolin-6-yl)azetidin-1-yl)prop-2-en-1-one]
≤ 200	200 to 1000	≤ 200	≤ 200	200 to 1000	200 to 1000	C=CC(=O)N1CC(c2cc3c(Nc4ccc(Cl)c(Cl)c4F)ncnc3cc2OCCN2CCOCC2)C1 [Compound 28, 1-(3-(4-((3,4-dichloro-2-fluorophenyl)amino)-7-(2-morpholinoethoxy)quinazolin-6-yl)azetidin-1-yl)prop-2-en-1-one]
≤ 200	200 to 1000	≤ 200	≤ 200	≤ 200	200 to 1000	C=CC(=O)N1CC(c2cc3c(Nc4ccc(Cl)c(Cl)c4F)ncnc3cc2O[C@@H]2CCOC2)C1 [Compound 29, (R)-1-(3-(4-((3,4-dichloro-2-fluorophenyl)amino)-7-((tetrahydrofuran-3-yl)oxy)quinazolin-6-yl)azetidin-1-yl)prop-2-en-1-one]
≤ 200	≤ 200	≤ 200	≤ 200	≤ 200	≤ 200	C=CC(=O)N1CC(c2cc3c(Nc4ccc(Cl)c(Cl)c4F)ncnc3cc2OCCCN2CCOCC2)C1 [Compound 30, 1-(3-(4-((3,4-dichloro-2-fluorophenyl)amino)-7-(3-morpholinopropoxy)quinazolin-6-yl)azetidin-1-yl)prop-2-en-1-one]
≤ 200	≤ 200	≤ 200	≤ 200	≤ 200	200 to 1000	C=CC(=O)N1CC(c2cc3c(Nc4ccc(Cl)c(Cl)c4F)ncnc3cc2OCCCN2CCN(C)CC2)C1 [Compound 31, 1-(3-(4-((3,4-dichloro-2-fluorophenyl)amino)-7-(3-(4-methylpiperazin-1-yl)propoxy)quinazolin-6-yl)azetidin-1-yl)prop-2-en-1-one]
≤ 200	≤ 200	≤ 200	≤ 200	≤ 200	≤ 200	[2H]C([2H])([2H])Oc1cc2ncnc(Nc3ccc(Cl)c(Cl)c3F)c2cc1C1CN(C(=O)C=C)C1 [Compound 32, 1-(3-(4-((3,4-dichloro-2-fluorophenyl)amino)-7-(methoxy-d3)quinazolin-6-yl)azetidin-1-yl)prop-2-en-1-one]
≤ 200	≤ 200	≤ 200	≤ 200	≤ 200	≤ 200	C=CC(=O)N1CC(c2cc3c(Nc4ccc(F)c(Cl)c4F)ncnc3cc2O[C@H]2CCOC2)C1 [Compound 33, (S)-1-(3-(4-((3-chloro-2,4-difluorophenyl)amino)-7-((tetrahydrofuran-3-yl)oxy)quinazolin-6-yl)azetidin-1-yl)prop-2-en-1-one]
200 to 1000	200 to 1000	≤ 200	≤ 200	> 1000	≤ 200	C=CC(=O)NCC1COc2cc3ncnc(Nc4ccc(Cl)c(Cl)c4F)c3cc21 (stereo not drawn) [Compound 34, N-((4-((3,4-dichloro-2-fluorophenyl)amino)-6,7-dihydrofuro[3,2-g]quinazolin-6-yl)methyl)acrylamide]
> 1000	> 1000	> 1000	> 1000	> 1000	> 1000	[2H]C([2H])([2H])n1cn/c(=N\c2ccc(Cl)c(Cl)c2F)c2cc3c(cc21)OCC3CNC(=O)C=C (stereo not drawn) [Compound 35, (Z)—N-((4-((3,4-dichloro-2-fluorophenyl)imino)-1-trideuteriomethyl-1,4,6,7-tetrahydrofuro[3,2-g]quinazolin-6-yl)methyl)acrylamide]
≤ 200	200 to 1000	200 to 1000	≤ 200	200 to 1000	200 to 1000	C=C(F)C(=O)N1CC(c2cc3c(Nc4ccc(Cl)c(Cl)c4F)ncnc3cc2O[C@H]2CCOC2)C1 [Compound 37, (S)-1-(3-(4-((3,4-dichloro-2-fluorophenyl)amino)-7-((tetrahydrofuran-3-yl)oxy)quinazolin-6-yl)azetidin-1-yl)-2-fluoroprop-2-en-1-one]
200 to 1000	> 1000	200 to 1000	≤ 200	> 1000	> 1000	C=C(F)C(=O)N1CC(c2cc3c(Nc4ccc(Cl)c(Cl)c4F)ncnc3cc2OC)C1 [Compound 38, 1-(3-(4-((3,4-dichloro-2-fluorophenyl)amino)-7-methoxyquinazolin-6-yl)azetidin-1-yl)-2-fluoroprop-2-en-1-one]
